From patent publication US9676788B2, “Aza-epoxy-guaiane derivatives and treatment of cancer” (The United States of America, as represented by the …, priority 2014, dated 2017)
Several values for one entry are separate records, joined by “and”; a condition that tells them apart may be missing. Identical values can stand only once. Like-named read-outs stand apart in the source and are kept apart here.

Columns and labels:
A498 (renal cancer) = assay: NCI 60-cell line protocol, Renal Cancer A498; type: cell-based, human; conditions: SRB endpoint; for GI50: Homo sapiens, A498, 48 h, five 10-fold dilutions, two days exposure; for A498 one dose (%): one-dose protocol, single final concentration of 10 micromolar, two days
ACHN (renal cancer) = assay: NCI 60-cell line protocol, Renal Cancer ACHN; type: cell-based, human; conditions: SRB endpoint; for GI50: Homo sapiens, ACHN, 48 h, five 10-fold dilutions, two days exposure; for ACHN one dose (%): one-dose protocol, single final concentration of 10 micromolar, two days
HS 578T (breast cancer) = assay: NCI 60-cell line protocol, Breast Cancer HS 578T; type: cell-based, human; conditions: SRB endpoint; for GI50: Homo sapiens, Hs-578T, 48 h, five 10-fold dilutions, two days exposure; for HS 578T one dose (%): one-dose protocol, single final concentration of 10 micromolar, two days
[1] = Plasma concentration in mice 30 minutes after oral gavage, by dose (LC-MS); type: in vivo
Method: Mice were dosed at 5 mg/kg, 10 mg/kg, 50 mg/kg, and 100 mg/kg compound 9 in Labrasol vehicle via oral gavage. 30 minutes after dosing, plasma was assayed for the concentration of compound 9 using LC-MS. The results are depicted graphically in FIG. 5.

[2] = Plasma concentration in mice over time after oral gavage (LC-MS/MS); type: in vivo
Method: Ten mice were administered 50 mg/kg of compound 9 in Labrasol vehicle via oral gavage. Two mice at a time were sacrificed at the following time points: 5 min, 15 min, 1 h, 4 h, and 8 h. Plasma concentrations of compound 9 were measured by LC-MS/MS, and the results set forth in Table 4 and depicted graphically in FIG. 7.
It was subsequently discovered that an error was made in weighing out compound 9 for formulation of a 5 mg/mL solution in Labrasol. The underweight formulation was confirmed to be about 40% of the expected concentration.

SA = assay: NCI 60-cell line protocol, Leukemia SA; type: cell-based, human; conditions: single dose 10 μM, two days exposure, SRB endpoint
M14 = assay: NCI 60-cell line protocol, Melanoma M14; conditions: single dose 10 μM, two days exposure, SRB endpoint
Method: (§1) Samples were tested in the standard National Cancer Institute 60-cell line protocol. First, they were tested against all 60 cell lines in a single final concentration of 10 micromolar. Then, they were separately tested in five 10-fold dilutions. The drug exposure was for two days, with an SRB endpoint.
(§2) Samples were tested in the standard National Cancer Institute 60-cell line protocol. The dosing protocol was a single dose of the compound at 10 μM concentration.

K-562 = assay: NCI 60-cell line protocol, Leukemia K-562; conditions: K-562 (Leukemia); single dose 10 μM; two days exposure; SRB endpoint
Method: as §1, §2

CCRF-CEM = assay: NCI 60-cell line protocol, Leukemia CCRF-CEM; conditions: single dose 10 μM, two days exposure, SRB endpoint
Method: as §1, §2

UACC-62 = assay: NCI 60-cell line protocol, Melanoma UACC-62; conditions: UACC-62 (Melanoma); single dose 10 μM; two days exposure; SRB endpoint
Method: as §1, §2

LOX IMVI = assay: NCI 60-cell line protocol, Melanoma LOX IMVI; conditions: single dose 10 μM, two days exposure, SRB endpoint
Method: as §1, §2

MALME-3M = assay: NCI 60-cell line protocol, Melanoma MALME-3M; conditions: MALME-3M (Melanoma); single dose 10 μM; two days exposure; SRB endpoint
Method: as §1, §2

SK-MEL-2 = assay: NCI 60-cell line protocol, Melanoma SK-MEL-2; conditions: SK-MEL-2 (Melanoma); single dose 10 μM; two days exposure; SRB endpoint
Method: as §1, §2

SK-MEL-5 = assay: NCI 60-cell line protocol, Melanoma SK-MEL-5; conditions: SK-MEL-5 (Melanoma); single dose 10 μM; two days exposure; SRB endpoint
Method: as §1, §2

UACC-257 = assay: NCI 60-cell line protocol, Melanoma UACC-257; conditions: UACC-257 (Melanoma); single dose 10 μM; two days exposure; SRB endpoint
Method: as §1, §2

RPMI-8226 = assay: NCI 60-cell line protocol, Leukemia RPMI-8226; conditions: RPMI-8226 (Leukemia); single dose 10 μM; two days exposure; SRB endpoint
Method: as §1, §2

SK-MEL-28 = assay: NCI 60-cell line protocol, Melanoma SK-MEL-28; conditions: SK-MEL-28 (Melanoma); single dose 10 μM; two days exposure; SRB endpoint
Method: as §1, §2

MDA-MB-435 = assay: NCI 60-cell line protocol, Melanoma MDA-MB-435; conditions: MDA-MB-435 (Melanoma); single dose 10 μM; two days exposure; SRB endpoint
Method: as §1, §2

HL-60(fB) = assay: NCI 60-cell line protocol, Leukemia HL-60(fB); type: cell-based, human; conditions: HL-60(fB) (Leukemia); single dose 10 μM; two days exposure; SRB endpoint
MOLT-4 = assay: NCI 60-cell line protocol, Leukemia MOLT-4; type: cell-based, human; conditions: MOLT-4 (Leukemia); single dose 10 μM; two days exposure; SRB endpoint

Compound | GI50 (A498 (renal cancer)) [nM] | A498 one dose (%) (A498 (renal cancer)) | GI50 (ACHN (renal cancer)) [nM] | ACHN one dose (%) (ACHN (renal cancer)) | GI50 (HS 578T (breast cancer)) [nM] | HS 578T one dose (%) (HS 578T (breast cancer)) | Growth Percent (SA) [%] | Growth Percent (M14) [%] | Growth Percent (K-562) [%] | Growth Percent (CCRF-CEM) [%] | Growth Percent (UACC-62) [%] | Growth Percent (LOX IMVI) [%] | Growth Percent (MALME-3M) [%] | Growth Percent (SK-MEL-2) [%] | Growth Percent (SK-MEL-5) [%] | Growth Percent (UACC-257) [%] | Growth Percent (RPMI-8226) [%] | Growth Percent (SK-MEL-28) [%] | Growth Percent (MDA-MB-435) [%] | other results
CC1CCC2C1C(OC(=O)/C=C/c1ccccc1)C1(C(C)C)CC(NC(=O)CO)C2(C)O1 (centres unmarked) [Compound 9] | 160 | −15.20 | 4000 | 8.01 | 830 | 9.45 | – | – | – | – | – | – | – | – | – | – | – | – | – | concentration at 30 min ([1]; mouse, plasma, 100 mg/kg oral gavage in Labrasol, 30 minutes after dosing): ~700 ng/mL; oral bioavailability ([1]; oral gavage 5-100 mg/kg in Labrasol): orally bioavailable; [Aza-Englerin] (ng/mL), single animal ([2]; mice plasma, 50 mg/kg oral gavage in Labrasol, time 0.0833 hr, 50 mg/kg): 13.20 ng/mL; [Aza-Englerin] (ng/mL), single animal ([2]; mice plasma, 50 mg/kg oral gavage in Labrasol, time 0.2500 hr, 50 mg/kg): 22.76 ng/mL and 58.70 ng/mL; [Aza-Englerin] (ng/mL), single animal ([2]; mice plasma, 50 mg/kg oral gavage in Labrasol, time 1.0000 hr, 50 mg/kg): 59.24 ng/mL; [Aza-Englerin] (ng/mL), single animal ([2]; mice plasma, 50 mg/kg oral gavage in Labrasol, time 4.0000 hr, 50 mg/kg): 31.12 ng/mL and 86.81 ng/mL; [Aza-Englerin] (ng/mL), single animal ([2]; mice plasma, 50 mg/kg oral gavage in Labrasol, time 8.0000 hr, 50 mg/kg): 48.21 ng/mL; oral bioavailability ([2]; mice, oral gavage 50 mg/kg in Labrasol): orally bioavailable; absorption ([2]; mice, oral gavage in Labrasol): rapidly absorbed; time for which plasma concentrations are sustained ([2]; mice, oral gavage in Labrasol): greater than 8 h; concentration at 5 min ([2]; mouse, plasma, po, 50 mg/kg, mice plasma, 50 mg/kg oral gavage in Labrasol, time 0.0833 hr, mean of two mice, read-out: [Aza-Englerin] Mean): 10 ng/mL; concentration at 5 min ([2]; mouse, plasma, po, 50 mg/kg, mice plasma, 50 mg/kg oral gavage in Labrasol, time 0.0833 hr, read-out: [Aza-Englerin] (ng/mL), single animal): 6.87 ng/mL; concentration at 0.25 h ([2]; mouse, plasma, po, 50 mg/kg, mice plasma, 50 mg/kg oral gavage in Labrasol, time 0.2500 hr, mean of two mice, read-out: [Aza-Englerin] Mean): 40.7 ng/mL; concentration at 1 h ([2]; mouse, plasma, po, 50 mg/kg, mice plasma, 50 mg/kg oral gavage in Labrasol, time 1.0000 hr, mean of two mice, read-out: [Aza-Englerin] Mean): 73.2 ng/mL; concentration at 1 h ([2]; mouse, plasma, po, 50 mg/kg, mice plasma, 50 mg/kg oral gavage in Labrasol, time 1.0000 hr, read-out: [Aza-Englerin] (ng/mL), single animal): 87.2 ng/mL; concentration at 4 h ([2]; mouse, plasma, po, 50 mg/kg, mice plasma, 50 mg/kg oral gavage in Labrasol, time 4.0000 hr, mean of two mice, read-out: [Aza-Englerin] Mean): 59 ng/mL; concentration at 8 h ([2]; mouse, plasma, po, 50 mg/kg, mice plasma, 50 mg/kg oral gavage in Labrasol, time 8.0000 hr, mean of two mice, read-out: [Aza-Englerin] Mean): 67.8 ng/mL; concentration at 8 h ([2]; mouse, plasma, po, 50 mg/kg, mice plasma, 50 mg/kg oral gavage in Labrasol, time 8.0000 hr, read-out: [Aza-Englerin] (ng/mL), single animal): 87.3 ng/mL; AUC(0-t) ([2]; mouse, mice plasma, 50 mg/kg oral gavage in Labrasol, SE=97.3 hr*ng/mL): 524 ng·h/mL
C/C(=C\C(=O)OC1C2C(C)CCC2C2(C)OC1(C(C)C)CC2NC(=O)CO)c1ccccc1 (centres unmarked) [Compound 10] | 1100 | −24.59 | 3300 | 27.88 | 2200 | −8.92 | 117.13 | 100.16 | 92.32 | 94.07 | 101.83 | 100.2 | 95.9 | 104.13 | 101.11 | 92.39 | 125.43 | 117.95 | 105.86 | –
CC(C)[C@@]12C[C@@H](NC(=O)CO)[C@@](C)(O1)[C@@H]1CC[C@@H](C)[C@H]1[C@@H]2OC(=O)/C=C/C1CCCCC1 [Compound 11] | 5600 | 41.34 | 17000 | 99.90 | 6200 | 73.09 | – | – | – | – | – | – | – | – | – | – | – | – | – | –
CC(C)[C@@]12C[C@@H](NC(=O)CO)[C@@](C)(O1)[C@@H]1CC[C@@H](C)[C@H]1[C@@H]2OC(=O)c1ccc2ccccc2c1 [Compound 12] | 1600 | −15.23 | 5400 | 8.40 | 2200 | −18.26 | – | – | – | – | – | – | – | – | – | – | – | – | – | –
CC1CCC2C1C(OC(=O)/C=C/c1ccccc1)C1(C(C)C)CC(NC(=O)CF)C2(C)O1 (centres unmarked) [Compound 31] | – | 83.31 | – | 104.52 | – | 92.63 | 85.46 | 96.67 | 106.42 | 88.63 | 99.56 | 102.48 | 106.46 | 116.95 | 110.24 | 104.8 | 94.34 | 109.79 | 106.48 | Growth Percent (HL-60(fB)): 104.52%; Growth Percent (MOLT-4): 96.46%
